Where “and” joins values, the source holds several entries; their conditions need not be identical. Equal values may be shown once.
Columns and labels:
Corn = assay: Multi-crop greenhouse test, herbicide POE (Examples 62-64; Tables 61-63); format: in vivo; conditions: COUNTER 15G and BEACON; Example 62
Procedure: (§1) Tests according to this invention in various crops indicate widespread application of the invention. In Examples 62-66 below are described tests with a variety of herbicides contacted with COUNTER® 15G in the presence and absence of MON-7400 (Antidote No. 12); MON-13900 (No. 1); MON-4660 (No. 16) and flurazole (No. 16). Those tests were conducted according to Procedures IV or V described above and illustrated further in other foregoing examples. Plants used in all tests were, for crops (as abbreviated in parentheses); cotton (COTT); soybean (SOBE); CORN, grain sorghum (GRSO); wheat (WHEA) and RICE, and the weeds giant foxtail (GIFT) and velvetleaf (VELE). The data in the tables below represent averages of two replications.
(§2) In this test the crops and weeds were planted 1.3 cm deep in 13.7 cm X 27.7 cm pans containing Dupo silt loam soil. The test safeners were applied in acetone solution and COUNTER 15G as dry granules to soil cover layers and incorporated by shaking in a bag. Treated cover layers were placed on seeded pans which were transferred to greenhouse benches and subirrigated. Herbicide was applied POE six (6) days after PPI initiation and observations of plant injury made ten (10) days later; results are shown in Table 61. The herbicide used in this example was BEACON (No. 8).
The test procedure described in Example 62 was repeated using ACCENT® (Herbicide No. 7) as the herbicide; the biocide and safeners were the same.

Velvetleaf (VELE) [1] = assay: Greenhouse test Procedure VI (Examples 59-61; Tables 58-60); format: in vivo, Abutilon theophrasti
From the text: (§3) This procedure describes interaction among herbicide, biocide and antidote when the herbicide is incorporated in a soil cover layer and the biocide and the antidote are applied in a soil furrow containing crop seed before emergence of the crop. The soil and seeding depth were described in Procedure IV. A first container was designated as an untreated control, a second container was designated as a herbicide control, a third container was designated as a herbicide + biocide control and a fourth container as a herbicide + biocide + antidote test container. The biocide and antidote were formulated as granules. The biocide was applied to the soil furrows of the third and fourth containers at an application rate of 1.1 mg of active compound per cm of row. The antidote was applied to the soil furrow of the fourth container at an application rate of 0.37 mg of active compound per cm of row. A measured amount of the herbicide dispersed or dissolved in acetone was applied to a measured quantity of soil. The quantity of soil treated with the herbicide was thoroughly mixed to incorporate the herbicide. Samples of this soil were used to cover the seed beds of the second, third and fourth containers. For each test series, the seed bed of the first container was likewise covered by a soil layer not treated with herbicide and without biocide or antidote in the soil furrow.
(§4) The containers were then placed on a bench in a greenhouse. Watering was by subirrigation plus overhead irrigation after the plants emerged. All treatments were run in duplicate. Plant response was observed according to Procedure IV. Variations in this procedure will be noted in the examples.
(§5) The procedure used in this example involved the PPI application of biocide and safener as described in general Procedure VI above. The "primary" herbicide in this test was MON-12000 (Herbi-cide No. 1) in admixture with other herbicides designated as "co-herbicides", which included LASSO® (co-herbicide B); DUAL® (C); acetochlor (A); EPTAM® (D); butylate (E) and PURSUIT® (K).
(§6) The in-furrow treatments with blended COUNTER 15G and antidote mixtures was as described in above examples. MON-12000 and the co-herbicides were formulated in acetone and applied as tank mixtures, incorporated into Dupo silt loam soil with a rotary drum mixer. Subsamples were used to cover seeded and in-furrow treated 10.2 cm pots. Pots were placed on greenhouse benches and subirrigated. Plant responses were observed thirteen days after PPI initiation. Test results (average of two replications) are shown in Table 58, wherein giant foxtail (GIFT) was used in place of shattercane.
(§7) This test was conducted in the same manner used in Example 59. All biocide and antidote components were the same and in these tests XRD-498 (Herbicide No. 21) was the prime herbicide. Co-herbicides are shown in Table 59 together with test data.
(§8) In one other test conducted as described in the preceding examples in this series of tests, the herbicide PURSUIT® was used as the primary herbicide (in the context of this invention) together with the same insecticide and safeners as above and the co-herbicides shown in Table 60, together with test results.

Velvetleaf (VELE) [2] = assay: Multi-crop greenhouse test, soil-applied (Examples 65, 66; Tables 64, 65); format: in vivo, Abutilon theophrasti
Procedure: as §1, §2
In another test in the several crops and weeds used in this test series, the herbicidal component was MON-12000 (No. 1); the other components were the same. the procedure used in this test was the same as that described in Example 62, modified to use a light overhead irrigation (about 0.32 cm/day) during days 4-7 of the test. Table 64 […]

Giant foxtail (GIFT) [3] = assay: whole plant or invertebrate; format: in vivo
Giant foxtail (GIFT) [4] = assay: Greenhouse test Procedure VI (Examples 59-61; Tables 58-60); format: in vivo
From the text: as §3, §4, §5, §6, §7, §8

[5] = Antidote + Biocide No. 1 in furrow, Herbicide No. 6 0.14 Kg/Ha PPI
[6] = Antidote + Biocide No. 1 in furrow, Herbicide No. 11 0.0044 Kg/Ha PPI
[7] = Antidote + Biocide No. 1 in furrow, Herbicide No. 12 0.0044 Kg/Ha PPI
[8] = Antidote + Biocide No. 1 in furrow, Herbicide No. 13 0.0011 Kg/Ha PPI
[9] = Antidote + Biocide No. 1 in furrow, Herbicide No. 13 0.0022 Kg/Ha PPI
[10] = Antidote + Biocide No. 1 in furrow, Herbicide No. 14 0.07 Kg/Ha PPI
[11] = Antidote + Biocide No. 1 in furrow, Herbicide No. 16 0.07 Kg/Ha PPI, 13 days
[12] = Antidote + Biocide No. 1 in furrow, Herbicide No. 17 0.14 Kg/Ha PPI, 13 days
[13] = Antidote + Biocide No. 1 in furrow, Herbicide No. 18 0.04 Kg/Ha PPI, 13 days
[14] = Antidote + Biocide No. 1 in furrow, Herbicide No. 20 1.12 Kg/Ha PPI, 13 days
[15] = Antidote + Biocide No. 1 in furrow, Herbicide No. 22 0.28 Kg/Ha PPI, 13 days
[16] = Antidote + Biocide No. 1 in furrow, Herbicide No. 24 0.14 Kg/Ha PPI, 13 days
[17] = Antidote + Biocide No. 1 in furrow, Herbicide No. 25 0.14 Kg/Ha PPI, 13 days
[18] = Antidote + Biocide No. 1 in furrow, Herbicide No. 26 2.24 Kg/Ha PPI, 13 days
[19] = Antidote + Biocide No. 1 in furrow, Herbicide No. 28 0.04 Kg/Ha PPI, 13 days
[20] = Herbicide No. 12 0.0044 Kg/Ha PPI + Biocide No. 1 in furrow, no antidote
[21] = Herbicide No. 12 0.0044 Kg/Ha PPI alone, average of two reps

## O=C(OCc1ccccc1)c1sc(Cl)nc1C(F)(F)F [Antidote No. 7, 5-Thiazolecarboxylic acid, 2-chloro-4-(trifluoromethyl)-, (phenylmethyl) ester]
Corn
  corn injury: effectively reduced

## COC(=O)COC(c1ccccc1)c1ccccc1 [compound 12]
Velvetleaf (VELE) [1]; [5]
  % Inhibition VELE: 65%
Velvetleaf (VELE) [1]; [6]
  % Inhibition VELE: 70%
Velvetleaf (VELE) [1]; [7]
  % Inhibition VELE: 60%
Velvetleaf (VELE) [1]; [8]
  % Inhibition VELE: 15%
Velvetleaf (VELE) [1]; [9]
  % Inhibition VELE: 60%
Velvetleaf (VELE) [1]; [10]
  % Inhibition VELE: 85%
Velvetleaf (VELE) [1]; [11]
  % Inhibition VELE: 60%
Velvetleaf (VELE) [1]; [12]
  % Inhibition VELE: 80%
Velvetleaf (VELE) [1]; [13]
  % Inhibition VELE: 70%
Velvetleaf (VELE) [1]; [14]
  % Inhibition VELE: 95%
Velvetleaf (VELE) [1]; [15]
  % Inhibition VELE: 75%
Velvetleaf (VELE) [1]; [16]
  % Inhibition VELE: 90%
Velvetleaf (VELE) [1]; [17]
  % Inhibition VELE: 70%
Velvetleaf (VELE) [1]; [18]
  % Inhibition VELE: 55%
Velvetleaf (VELE) [1]; [19]
  % Inhibition VELE: 80%
Velvetleaf (VELE) [1]; [20]
  % Inhibition VELE: 50%
Velvetleaf (VELE) [1]; [21]
  % Inhibition VELE: 50%
Velvetleaf (VELE) [2]; Table 64, Herb. No. 1 0.018 Kg/Ha + Biocide No. 1 8.96 Kg/Ha + Antidote 4.48 Kg/Ha
  % Inhibition VELE: 50%
Velvetleaf (VELE) [2]; Table 64, Herb. No. 1 0.07 Kg/Ha + Biocide No. 1 8.96 Kg/Ha + Antidote 4.48 Kg/Ha
  % Inhibition VELE: 85%
Velvetleaf (VELE) [2]; Table 64, Herb. No. 1 0.28 Kg/Ha + Biocide No. 1 8.96 Kg/Ha + Antidote 4.48 Kg/Ha
  % Inhibition VELE: 95%
Velvetleaf (VELE) [2]; Table 65, Herb. No. 1 0.018 Kg/Ha + Biocide No. 1 8.96 Kg/Ha + Antidote 4.48 Kg/Ha
  % Inhibition VELE: 0%
Velvetleaf (VELE) [2]; Table 65, Herb. No. 1 0.07 Kg/Ha + Biocide No. 1 8.96 Kg/Ha + Antidote 4.48 Kg/Ha
  % Inhibition VELE: 75%
Velvetleaf (VELE) [2]; Table 65, Herb. No. 1 0.28 Kg/Ha + Biocide No. 1 8.96 Kg/Ha + Antidote 4.48 Kg/Ha
  % Inhibition VELE: 85%
Giant foxtail (GIFT) [3]; […], PPI, 14 days after PPI (Table 34)
  % Inhibition GIFT: 60%
Giant foxtail (GIFT) [3]; in vivo
  % Inhibition GIFT: 45% and 65% and 75% and 50% and 55% and 70% and 90%
Giant foxtail (GIFT) [4]; [5]
  % Inhibition GIFT: 60%
Giant foxtail (GIFT) [4]; [6]
  % Inhibition GIFT: 0%
Giant foxtail (GIFT) [4]; [7]
  % Inhibition GIFT: 0%
Giant foxtail (GIFT) [4]; [8]
  % Inhibition GIFT: 0%
Giant foxtail (GIFT) [4]; [9]
  % Inhibition GIFT: 25%
Giant foxtail (GIFT) [4]; [10]
  % Inhibition GIFT: 0%
Giant foxtail (GIFT) [4]; [11]
  % Inhibition GIFT: 35%
Giant foxtail (GIFT) [4]; [12]
  % Inhibition GIFT: 80%
Giant foxtail (GIFT) [4]; [13]
  % Inhibition GIFT: 50%
Giant foxtail (GIFT) [4]; [14]
  % Inhibition GIFT: 25%
Giant foxtail (GIFT) [4]; [15]
  % Inhibition GIFT: 20%
Giant foxtail (GIFT) [4]; [16]
  % Inhibition GIFT: 20%
Giant foxtail (GIFT) [4]; [17]
  % Inhibition GIFT: 25%
Giant foxtail (GIFT) [4]; [18]
  % Inhibition GIFT: 0%
Giant foxtail (GIFT) [4]; [19]
  % Inhibition GIFT: 35%
Giant foxtail (GIFT) [4]; [20]
  % Inhibition GIFT: 0%
Giant foxtail (GIFT) [4]; [21]
  % Inhibition GIFT: 0%

## CC1(C)OC(c2ccco2)CN1C(=O)C(Cl)Cl (stereo not drawn) [Antidote No. 1, Oxazolidine, 3-(dichloroacetyl)-2,2-dimethyl-5-(2-furanyl)-]
Corn
  corn injury: effectively reduced

## COC(=O)COC(c1ccccc1)c1ccccc1 [Antidote No. 12, Acetic acid, (diphenylmethoxy)-, methyl ester]
Corn
  corn injury: effectively reduced

From patent EP0565593B1, “REDUCING PESTICIDAL INTERACTIONS IN CROPS” (priority 1990, dated 1992)
